Assay results as given in patent US20240228487A1, “FUSED HETEROCYCLIC COMPOUND AND APPLICATION THEREOF, PHARMACEUTICAL COMPOSITIONS CONTAINING SAME AND APPLICATION THEREOF” (ZHEJIANG UNIVERSITY, priority 2021, published 2024).

Legend:
[1] = test system: dopaminergic neurons differentiated from iPSC derived from disseminated PD patients; assay: cell viability (cell titer glo) of iPSC differentiated dopaminergic neurons; format: cell-based, human; settings: II-23 0.6 μM, ACA 0.5 μM, from day 15 of culture; CTG kit
Procedure: Using normal and disseminated PD patient-derived induced pluripotent stem cells (iPSC), performing drug interventions using the TRPM2 inhibitors ACA and II-23 after they were induced and differentiated into mature dopaminergic neurons, the drug treating method is as follows: • a. Calculating the materials for the experiment, and starting preparing when the dopaminergic neurons are differentiated to the 8th day. The petri dishes should be treated with 33 μg/mL PDL overnight and washed with sterilized water. After drying, 2 μg/mL of laminin was added and incubated overnight. Both PDL and laminin can be recycled for reuse. • b. Digesting and collecting the differentiated cells with Accutase, and counting with a cell counting plate, and then diluting to 500,000/mL with maturation medium (Y-27632 should be added). Fluorescence confocal imaging was performed using a confocal dish inoculated with 2 mL/dish, and cell viability assays were performed using a 96-well plate inoculated with 100 μL/well. Taking this time point as the 10th day, changing to Y-27632-free medium on the 11th day, and changing the medium every two days. • c. When the cells were cultured to the 15th day, treating the drugs to a final concentration with the medium, the working concentration of ACA is 0.5 μM, and the working concentration of II-23 is 0.6 μM, and the drug-containing medium was changed every four days. […]

[2] = test system: dopaminergic neurons differentiated from iPSC derived from disseminated PD patients; assay: mitochondrial fusion morphology (Mitotracker, Girk2 labeling) of iPSC differentiated dopaminergic neurons; format: cell-based, human; settings: II-23 0.6 μM, ACA 0.5 μM; Mitotracker staining, Girk2-positive neurons
Procedure: Using normal and disseminated PD patient-derived induced pluripotent stem cells (iPSC), performing drug interventions using the TRPM2 inhibitors ACA and II-23 after they were induced and differentiated into mature dopaminergic neurons, the drug treating method is as follows: • a. Calculating the materials for the experiment, and starting preparing when the dopaminergic neurons are differentiated to the 8th day. The petri dishes should be treated with 33 μg/mL PDL overnight and washed with sterilized water. After drying, 2 μg/mL of laminin was added and incubated overnight. Both PDL and laminin can be recycled for reuse. • b. […] Fluorescence confocal imaging was performed using a confocal dish inoculated with 2 mL/dish, and cell viability assays were performed using a 96-well plate inoculated with 100 μL/well. […]
Positive dopamine neurons were labeled with a dopaminergic neuron marker molecule Girk2 antibody susceptible for SNc, and cellular mitochondria were labeled with the mitochondrial dye mitotracker as in FIG. 15. […] Finally, performing the fluorescence imaging: removing the secondary antibody, and washing three times with 1×PBS, adding 50% Glycerol for fluorescence protection, and then imaging with a Zeiss LSM880 laser confocal microscope, as shown in FIG. 15.

[3] = test system: C57BL/6 mice, transient middle cerebral artery occlusion (tMCAO); assay: mouse tMCAO cerebral stroke model (Embodiment 69); format: in vivo; settings: 3 mg/kg tail vein injection 3 h after reperfusion; for area of cerebral infarction caused by tMCAO: TTC staining 24 h after ischemia-reperfusion; for neuromotor dysfunction scores caused by tMCAO: scored 24 h after ischemia-reperfusion
Description: After isoflurane inhalation gas anesthesia of 22-25 g male C57BL/6 mice, the fiber-optic probes of a laser Doppler flowmeter were fixed to the skull of the mice with glue for monitoring the cerebral blood flow of the middle cerebral artery (MCA) supplying cortex. The mice were fixed in the supine position, and the middle of the neck was dehaired and routinely sterilized with 75% alcohol. An approximately 1.5 cm incision was made in the middle of the neck, and the skin of the neck was incised, and the muscle and fascia were separated along the inner edge of the sternocleidomastoideole; the right carotid artery sheath was bluntly separated to expose the right common carotid artery (CCA), external carotid artery (ECA), and internal carotid artery (ICA); after the surgical area was exposed satisfactorily, the CCA and ICA were temporarily clipped with arterial clips, and a small incision was made at the proximal end of the ECA with microsurgical scissors, and a nylon monofilament suture was inserted from the small incision along the ECA, and gently pushed into the intracranial area in the direction of the ICA for about 11.5±0.5 mm, blocking the beginning of the middle cerebral artery. Only the animals whose blood flow values decreased to 20% of the basic value were selected according to the blood flow data monitored by the flowmeter. After 90 minutes of ischemia, the monofilament sutures were gently withdrawn out, the arterial stumps were tied tightly, the surgical wounds were inspected, the bleeding was thoroughly stopped, a small amount of penicillin powder was sprinkled locally to prevent infection, and the subcutaneous tissues and the skin were sutured layer by layer, thus completing the ischemia reperfusion injury model. A heating plate was used to maintain the body temperature of the animals during surgery. After completion of the surgery, the sutured mice were placed in a heat preservation and humidification box until the mice recovered activities. Animals in the sham-operated group were subjected to the same surgical procedure but without middle artery occlusion.
Clean-grade male C57BL/6 mice were randomly divided into five groups, namely, the sham-operated group, the group of the positive control drug Edaravone(3 mg/kg), and the 3 mg/kg dose group of compounds II-1, II-23 and III-1.
The mice were subjected to tail vein injections of Edaravone, II-1, II-23, and III-1 respectively 3 h after modeling and reperfusion; the sham-operated group was injected with an equal volume of saline, and II-1, II-23, III-1, and Edaravone were dissolved in 0.9% saline solution. Neurological function scores and TTC staining of mice were performed 24 h after ischemia-reperfusion, and the results are shown in FIGS. 6, 7 and 8.
The mice were decapitated 24 h after ischemia-reperfusion, the coronal planes of the brains were cut into brain slices of about 2 mm thickness uniformly. The brain slices were placed in 0.25% 2,3,5-triphenyltetrazolium chloride (TTC) solution, incubated at 37° C. Celsius for 30 minutes away from light, stained, and fixed in 4% paraformaldehyde neutral buffer (pH 7.4) overnight. The processed brain slices were photographed using a macro camera, and Image J image analysis software was used to calculate and count the cerebral infarct volume, and the measured results are shown in FIG. 7. The formula for calculating the percentage of infarct volume was (sum of the left uninfarcted area −sum of the right uninfarcted area)/sum of the left uninfarcted area×100%.
According to the five-level, four-point standard of score, the mortality and neuromotor dysfunction scores of each group of mice were performed, and the results are shown in FIG. 8. […]

human TRPM2 channels = molecular target: T1, human TRPM2 channels (Homo sapiens, UniProt O94759); assay: whole cell patch clamp, inhibition of TRPM2 channel current; format: cell-based; settings: HEK293 cells stably expressing human TRPM2, 500 μM ADPR
T1 construct: expressed in transfected cells
T1 sequence (O94759 whole entry): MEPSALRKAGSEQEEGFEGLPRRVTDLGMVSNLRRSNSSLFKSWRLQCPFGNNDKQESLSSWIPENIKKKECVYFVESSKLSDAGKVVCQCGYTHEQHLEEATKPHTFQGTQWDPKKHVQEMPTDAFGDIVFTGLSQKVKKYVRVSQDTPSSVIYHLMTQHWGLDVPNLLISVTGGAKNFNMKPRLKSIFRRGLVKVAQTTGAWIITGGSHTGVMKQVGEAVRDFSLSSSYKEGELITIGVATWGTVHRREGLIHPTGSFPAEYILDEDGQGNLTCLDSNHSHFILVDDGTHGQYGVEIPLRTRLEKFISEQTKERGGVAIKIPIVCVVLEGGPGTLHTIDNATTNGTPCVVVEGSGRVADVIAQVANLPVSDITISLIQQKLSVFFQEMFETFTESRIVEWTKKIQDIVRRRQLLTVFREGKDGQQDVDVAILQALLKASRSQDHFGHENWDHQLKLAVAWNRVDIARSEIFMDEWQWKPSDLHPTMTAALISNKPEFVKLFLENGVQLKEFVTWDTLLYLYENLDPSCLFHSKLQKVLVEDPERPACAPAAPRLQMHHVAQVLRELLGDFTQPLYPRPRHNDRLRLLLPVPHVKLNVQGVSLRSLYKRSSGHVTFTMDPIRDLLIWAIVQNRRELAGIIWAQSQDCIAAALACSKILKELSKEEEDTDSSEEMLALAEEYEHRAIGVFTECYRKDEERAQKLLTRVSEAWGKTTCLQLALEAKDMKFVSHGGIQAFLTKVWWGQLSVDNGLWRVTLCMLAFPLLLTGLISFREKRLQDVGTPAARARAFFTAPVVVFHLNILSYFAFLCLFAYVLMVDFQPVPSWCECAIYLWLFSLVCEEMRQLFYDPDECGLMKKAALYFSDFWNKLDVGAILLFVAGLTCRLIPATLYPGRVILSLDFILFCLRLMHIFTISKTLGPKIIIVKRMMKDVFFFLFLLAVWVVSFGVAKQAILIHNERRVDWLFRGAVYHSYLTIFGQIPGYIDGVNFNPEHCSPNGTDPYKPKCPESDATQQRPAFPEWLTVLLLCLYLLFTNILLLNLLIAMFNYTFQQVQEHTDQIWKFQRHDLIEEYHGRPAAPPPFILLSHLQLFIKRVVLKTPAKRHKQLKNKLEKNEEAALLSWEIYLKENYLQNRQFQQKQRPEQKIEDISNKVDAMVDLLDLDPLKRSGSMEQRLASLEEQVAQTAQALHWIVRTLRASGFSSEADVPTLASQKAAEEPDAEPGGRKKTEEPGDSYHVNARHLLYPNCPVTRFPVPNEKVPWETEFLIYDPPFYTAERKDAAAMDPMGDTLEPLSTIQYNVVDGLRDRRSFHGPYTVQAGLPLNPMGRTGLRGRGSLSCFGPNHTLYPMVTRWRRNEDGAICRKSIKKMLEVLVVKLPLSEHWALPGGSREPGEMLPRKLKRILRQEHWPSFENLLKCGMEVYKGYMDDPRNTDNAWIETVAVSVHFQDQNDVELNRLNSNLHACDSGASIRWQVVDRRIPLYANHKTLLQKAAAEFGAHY
Procedure: The fused heterocyclic compound of the present invention has an inhibitory effect on the TRPM2 channel, and its pharmacological activity is measured using whole cell patch clamp technology, the corresponding steps are as follows: Incubating HEK293 cells stably expressing human TRPM2 channels in DMEM/F-12 medium containing 10% bovine serum, 50 units/mL of penicillin and […] of streptomycin under the condition of 5% CO2 and 37° C. The cells before testing are stored in the extracellular fluid (147 mM NaCl, 2 mM KCl, 1 mM MgCl2, 2 mM CaCl2, 10 mM HEPES, 13 mM glucose, pH 7.4). The electrode is filled with the electrode internal solution (147 mM NaCl, 0.05 mM EGTA, 1 mM MgCl2, 10 mM HEPES, 0.5 mM ADPR, pH=7.3), and the resistance is maintained at 3-5 M Ω. Administering ADPR into cells through electrodes, and detecting the ADPR concentration used to activate TRPM2 as 500 μM, when detecting a stable current, perfusing the corresponding concentration of fused heterocyclic compound II-1 into the extracellular fluid for at least 60 seconds. record the change in current magnitude using voltage ramp mode, changing the voltage from −100 mV to+100 mV within 500 ms, with a normal clamp voltage of 0 mV and a TRPM every 5 seconds; finally, replacing the extracellular fluid with a solution with pH=5.0 to block the TRPM2 current, the electrophysiological current test results obtained are shown in Table 1, and the electrophysiological current graph obtained is shown in FIG. 1. Similarly, administering corresponding concentrations of other fused heterocyclic compounds (II-2˜II-54, III-1˜III-11) into the extracellular fluid, taking electrophysiological tests using the same method, the results are shown in Table 1. The electrophysiological representative current graphs of some fused heterocyclic compounds (II-9, II-19, and II-36) inhibiting TRPM2 channel current are shown in FIG. 1.

[4] = test system: C57BL/6 mice, transient middle cerebral artery occlusion (tMCAO); assay: mouse tMCAO ischemia/reperfusion injury model (Embodiment 68); format: in vivo; settings: 3 mg/kg tail vein injection 3 h after reperfusion
Procedure: After isoflurane inhalation gas anesthesia of 22-25 g male C57BL/6 mice, the fiber-optic probes of the laser Doppler flowmeter were fixed to the animal's skull with glue for monitoring the cerebral blood flow of the middle cerebral artery (MCA) supplying cortex. […] Only animals whose blood flow values decreased to 20% of the basic value were selected according to the blood flow data monitored by the flowmeter. […]
The mice were decapitated 24 h after ischemia-reperfusion, the coronal planes of the brains were cut into brain slices of about 2 mm thickness uniformly, the brain slices were placed in 0.25% 2,3,5-triphenyltetrazolium chloride (TTC) solution, incubated at 37° C. […] The processed brain slices were photographed using a macro camera, and Image J image analysis software was used to calculate and count the cerebral infarct volume, and the measured results are shown in FIG. 4. […]

Compound: CCCCCc1ccc(/C=C/C(=O)Nc2ccccc2C(=O)O)cc1 [ACA, reference compound]
- cell viability of differentiated dopaminergic neurons derived from disseminated PD patients [1]: restored
- excessive mitochondrial fusion in dopaminergic neurons derived from PD patients [2]: reversed

Compound: COC(=O)c1cc(C(=O)c2ccccc2)n2ccnc2c1 [III-1, 5-benzimidazolo[1,2-a]pyridine-7-methyl carboxylate]
- area of cerebral infarction caused by tMCAO [3]: significantly reduced
- neuromotor dysfunction scores caused by tMCAO [3]: significantly reduced
- IC50 (human TRPM2 channels): 1 to 10 µM

Compound: CCOC(=O)c1cc(C(=O)c2ccccc2)n2cccc2c1 [II-1, 5-benzoimide 7-carboxylic acid ethyl ester]
- area of cerebral infarction caused by tMCAO [3]: significantly reduced
- neuromotor dysfunction scores caused by tMCAO [3]: significantly reduced
- IC50 (human TRPM2 channels): 1 to 10 µM
- volume of cerebral infarction caused by tMCAO ([4]; TTC staining 24 h after ischemia-reperfusion): significantly reduce
- scores of neuromotor dysfunction caused by tMCAO ([4]; scored 24 h after ischemia-reperfusion): significantly reduce

Compound: CCOC(=O)c1cc(C(=O)c2cccc(Br)c2)n2cccc2c1 [II-10, 5-(3-bromobenzoyl) indolizine-7-Ethyl carboxylate]
- IC50 (human TRPM2 channels): 1 to 10 µM

Compound: COC(=O)c1cc(C(=O)c2ccco2)n2cccc2c1 [II-13, 5-(furan-2-carbonyl) indolizine-7-methyl carboxylate]
- IC50 (human TRPM2 channels): 1 to 10 µM

Compound: CCCOC(c1ccccc1)c1cc(C(=O)OCC)cc2cccn12 (stereo not drawn) [II-54, 5-(Phenyl (Propyloxy) Methylindolizine-7-ethyl carboxylate]
- IC50 (human TRPM2 channels): 10 to 20 µM

Compound: COC(=O)c1cc(C(=O)c2ccccc2F)n2cccc2c1 [II-8, 5-(2-Fluorobenzoyl) indolizine-7-methyl carboxylate]
- IC50 (human TRPM2 channels): 1 to 10 µM

Compound: CCN(CC)C(=O)c1cc(C(=O)c2ccccc2F)n2cccc2c1 [II-32, N, N-Diethyl-5-(2-fluorobenzoyl) indolizine-7-formamide]
- IC50 (human TRPM2 channels): 10 to 20 µM
